Measurements as given in article PMC12055592, “Post-symptomatic NLRP3 inhibition rescues cognitive impairment and mitigates amyloid and tau driven neurodegeneration” (Npj Dementia, 2025).

What was measured:
NLRP1 = NLRP1 in vitro selectivity assay (Normal Human Epidermal Keratinocytes, Val-boroPro, IL-1β); type: cell-based; conditions: n = 2; top concentration 50 µM
Protocol: Normal Human Epidermal Keratinocytes pooled from juvenile donors (PromoCell, Heidelberg, Germany) were cultured in Keratinocyte Growth Medium 2 (PromoCell). Cells were seeded at 12,000 cells/well in a 96-well cell culture plate and incubated for 16 h at 37 °C with 5% CO2. The next day, the media was replaced with fresh media, and cells were pre-incubated for 60 min with VEN-02XX (top concentration 50 µM; 5-fold titration) before the addition of Val-boroPro mesylate (MedChemExpress, Monmouth Junction, NJ) at a final concentration of 7.5 µM. After a 30-h incubation at 37 °C with 5% CO2, supernatants were collected and IL-1β levels were determined in an electrochemiluminescence immunoassay (Mesoscale Discovery).

[1] = Mouse brain pharmacokinetic study (brain-to-plasma partition); type: in vivo; conditions: male, single oral dose 20 mg/kg
Protocol: Five groups of n = 3 male CD1 mice (weight 20–30 g, age 6–8 weeks old) were dosed by oral gavage with 20 mg/kg of VEN-02XX suspended in 0.5% w/v methylcellulose/0.1% w/v Tween 80, at a dose volume of 10 mL/kg. Food and water were available ad libitum to all animals. At a specific timepoint for each group (0.25, 1, 2, 4, and 8 h), 0.2 mL of blood was collected from the dorsal metatarsal vein and transferred into plastic micro centrifuge tubes with EDTA-K2 as anticoagulant, then animals were terminally anaesthetized with a rising concentration of CO2 gas for about 1 min, brains were collected and rinsed with cold PBS. […]
Concentrations of VEN-02XX in plasma and brain were determined by a LC-MS/MS assay. […] Two transitions were monitored for VEN-02XX and the more sensitive transition with less interference (397.1 –> 270.1) was used for quantification.
Pharmacokinetic parameters were determined by non-compartmental analysis using WinNonLin software (Phoenix^TM, version 8.3), and the following parameters were calculated from the plasma concentrations versus time data: T1/2, Cmax, Tmax, AUCinf, AUClast. When appropriate, the brain Kp was calculated as AUClast(brain)/AUClast(plasma). Free brain partition coefficient (Kpuu) was calculated using the free fraction in plasma and brain measured in a high throughput equilibrium dialysis assay.

5XFAD/Rubicon KO mice [2] = test: Immunoblotting of NeuN and MAP2 in cortical and hippocampal lysates of 5XFAD/Rubicon KO mice; type: in vivo, mouse; conditions: 20 mg/kg vs vehicle, not statistically significant
Protocol: (§1) 5XFAD/Rubicon KO mice received vehicle (0.5% w/v methylcellulose/0.1% w/v Tween® 80 in water) or VEN-02XX (0.01, 1, or 20 mg/kg) every day by oral gastric gavage for 9 weeks.
Ten ug of protein was separated by gel electrophoresis (one gel loaded with cortex samples and one gel loaded with hippocampus samples), on a 4–15% gradient Tris-glycine gel and transferred to PVDF membranes using the TransBlot Turbo semi-dry transfer system (Bio-Rad Laboratories, Hercules, CA). The membranes were blocked in Tris-buffered saline, 0.1% Tween 20 (1X TBST) with 5% milk for 1 h at room temperature followed by overnight incubation at 4 °C with primary antibodies (1:1000 rabbit anti-NeuN [EMD Millipore, Burlington, MA] and 1:10,000 rabbit anti-Vinculin [Cell Signaling, Boston, MA]) diluted in TBST with 1% milk. For the complete list of antibodies please reference Supplementary Table 2. The next day, membranes were washed three times with 1XTBST for 10 min before incubation with HRP-conjugated secondary antibody (1:500 goat anti-rabbit [Cedarlane Labs, Burlington, ON]) for 90 min at room temperature. Membranes were then washed three times with 1XTBST for 10 min and developed with Pierce ECL western blotting substrate (Thermo Fisher Scientific) and visualized on a ChemiDoc imaging system (Bio-Rad Laboratories). […]

5XFAD/Rubicon KO mice [3] = test: Plasma neurofilament light chain (NfL) ELISA in 5XFAD/Rubicon KO mice; type: in vivo, mouse; conditions: 20 mg/kg, 9 weeks PO QD; lack of a dose-response
Protocol: as §1
Blood was collected via submandibular puncture. Briefly, mice were immobilized, and a small puncture was made in the submandibular vein using a sterile 28 g lancet. Blood was collected using a capillary tube coated in 0.5 M EDTA into separation tubes for plasma as indicated. Blood was subsequently centrifuged for 15 min at 13,000 rpm in a refrigerated centrifuge. Plasma was harvested as indicated and was either used immediately or stored at −80 °C until use.
Brain tissue was homogenized in PBS, pH 7.4 with 1X Halt™ protease inhibitor cocktail (Thermo Fisher Scientific, Waltham, MA) using a Bead Ruptor homogenizer (Omni International, Kennesaw, GA). Homogenates were clarified by centrifugation at 10,000 × g for 10 min. The crude homogenate was used for quantification of VEN-02XX levels, as described below. Total protein concentrations were quantified from clarified supernatants in a Pierce BCA protein assay (Thermo Fisher Scientific). Cytokine and chemokine levels were quantified using an electrochemiluminescence immunoassay (ECLIA) for IL-1β (total), TNFα, IL-6 and IP-10 (U-PLEX Custom Biomarker Group 1 (mouse) assay, Meso Scale Discovery, Rockville, MD) following the manufacturer’s instructions. […]

Structure (SMILES): CC(C)(O)CNc1nnc(-c2ccc(Cl)cc2C(F)(F)F)c2ccncc12 [VEN-02XX]
- block of IL-1β release downstream of NLRP1 (NLRP1): inability to block IL-1β release
- Kp ([1]; CD1, brain and plasma (total), AUClast (total drug), read-out: total brain-to-plasma partition coefficient, Kp): 0.86
- Kp uu ([1]; CD1, brain and plasma (unbound), AUClast (free drug), read-out: unbound brain-to-plasma partition coefficient, Kp,uu brain): 0.39
- MAP2 expression (immunoblot, normalized to vinculin) (5XFAD/Rubicon KO mice [2]): improved MAP2 levels
- NeuN protein expression (immunoblot, normalized to vinculin) (5XFAD/Rubicon KO mice [2]): consistent improvements in overall NeuN protein expression
- plasma NfL levels (5XFAD/Rubicon KO mice [3]): significantly reduced
